Key:
[1] = tested on: corn; assay: Test C pre-/postemergence herbicide test; type: in vivo, Zea mays
Text: (§1) Seeds of plant species selected from blackgrass (Alopecurus myosuroides), ryegrass, Italian (Italian ryegrass, Lolium multiflorum), wheat (winter wheat, Triticum aestivum), galium (catchweed bedstraw, Galium aparine), corn (Zea mays), crabgrass, large (large crabgrass, Digitaria sanguinalis), foxtail, giant (giant foxtail, Setaria faberii), johnsongrass (Sorghum halepense), lambsquarters (Chenopodium album), morningglory (Ipomoea coccinea), nutsedge, yellow (yellow nutsedge, Cyperus esculentus), pigweed (Amaranthus retroflexus), ragweed (common ragweed, Ambrosia elatior), soybean (Glycine max), barnyardgrass (Echinochloa crus-galli), oilseed rape (Brassica napus), waterhemp (common waterhemp, Amaranthus rudis), kochia (Kochia scoparia), oat, wild (wild oat, Avena fatua), surinam grass (Brachiaria decumbens), foxtail, green (green foxtail, Setaria viridis), goosegrass (Eleusine indica), bromegrass, downy (downy bromegrass, Bromus tectorum), nightshade (eastern black nightshade, Solanum ptycanthum), cocklebur (common cocklebur, Xanthium strumarium), cupgrass, woolly (woolly cupgrass, Eriochloa villosa), bermudagrass (Cynodon dactylon), sunflower, (common oilseed sunflower, Helianthus annuus), Russian thistle (Salsola kali) and velvetleaf (Abutilon theophrasti) were planted into a blend of loam soil and sand and treated preemergence with test chemicals formulated in a non-phytotoxic solvent mixture which included a surfactant. At the same time, plants selected from these crop and weed species and also barley (winter barley, Hordeum vulgare), […]), chickweed (common chickweed, Stellaria media), deadnettle (henbit deadnettle, Lamium amplexicaule), and canarygrass (littleseed canarygrass, Phalaris minor) were planted in pots containing Redi-Earth® planting medium (Scotts Company, 14111 Scottslawn Road, Marysville, Ohio 43041) comprising spaghnum peat moss, vermiculite, wetting agent and starter nutrients and treated with postemergence applications of test chemicals formulated in the same manner. Plants ranged in height from 2 to 18 cm (1- to 4-leaf stage) for postemergence treatments. Treated plants and controls were maintained in a greenhouse for 13 to 15 days, after which time all species were compared to controls and visually evaluated. Plant response ratings, summarized in Table C, are based on a scale of 0 to 100 where 0 is no effect and 100 is complete control. A dash (-) response means no test result.

[2] = tested on: oilseed rape; assay: Test C pre-/postemergence herbicide test; type: in vivo, Brassica napus
Text: as §1

[3] = tested on: barnyardgrass; assay: Test A pre-/postemergence herbicide test; type: in vivo, Echinochloa crus-galli; settings: for Barnyardgrass plant response rating: visual rating on 0 to 100 scale (0 no effect, 100 complete control)
How it was run: (§2)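 Seeds sown in loam soil/sand blend received a preemergence directed soil spray of test chemical in non-phytotoxic solvent with surfactant; postemergence plants (2–10 cm, one- to two-leaf stage) were sprayed with the same formulation. After about 10 days in greenhouse, injury was rated visually versus untreated controls, 0 (no effect) to 100 (complete control).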

[4] = tested on: lambsquarters; assay: Test C pre-/postemergence herbicide test; type: in vivo, Chenopodium album
Text: as §1

[5] = tested on: pigweed; assay: Test A pre-/postemergence herbicide test; type: in vivo, Amaranthus retroflexus
How it was run: as §2

[6] = tested on: soybean; assay: Test C pre-/postemergence herbicide test; type: in vivo, Glycine max
Text: as §1

[7] = tested on: blackgrass; assay: Test C pre-/postemergence herbicide test; type: in vivo, Alopecurus myosuroides
Text: as §1

[8] = tested on: morningglory; assay: Test C pre-/postemergence herbicide test; type: in vivo, Ipomoea coccinea
Text: as §1

[9] = tested on: nutsedge, yellow; assay: Test C pre-/postemergence herbicide test; type: in vivo, Cyperus esculentus
Text: as §1

[10] = tested on: corn; assay: Test A pre-/postemergence herbicide test; type: in vivo, Zea mays; settings: for Corn plant response rating: Preemergence, visual rating on 0 to 100 scale (0 no effect, 100 complete control)
How it was run: as §2

[11] = Preemergence, 31 g ai/ha, scale 0 to 100, 0 is no effect and 100 is complete control
[12] = Preemergence, 62 g ai/ha, scale 0 to 100 (0 no effect, 100 complete control)
[13] = Preemergence, 125 g ai/ha, scale 0 to 100 (0 no effect, 100 complete control)
[14] = Preemergence, 16 g ai/ha, scale 0 to 100
[15] = 125 g ai/ha, visual rating, 0 to 100 scale, 0 no effect, 100 complete control, approximately 10 days, preemergence
[16] = Postemergence, 125 g ai/ha, 0 to 100 scale, 0 is no effect, 100 is complete control
[17] = preemergence, 500 g ai/ha, 0 to 100 scale, 0 is no effect and 100 is complete control
[18] = Preemergence, 62 g ai/ha, scale 0 to 100
[19] = Postemergence, 125 g ai/ha, 0 to 100 scale, 0 no effect, 100 complete control
[20] = Postemergence, 500 g ai/ha, 0 to 100 scale (0 no effect, 100 complete control)
[21] = preemergence, 500 g ai/ha, 0 to 100 scale (0 no effect, 100 complete control)
[22] = Preemergence, 125 g ai/ha, visual rating on 0 to 100 scale (0 no effect, 100 complete control)
[23] = preemergence, 500 g ai/ha, 0 to 100 scale
[24] = Postemergence, 8 g ai/ha, scale 0 to 100 (0 no effect, 100 complete control)
[25] = Postemergence, 16 g ai/ha, scale 0 to 100 (0 no effect, 100 complete control)
[26] = Postemergence, 31 g ai/ha, scale 0 to 100 (0 no effect, 100 complete control)
[27] = Postemergence, 62 g ai/ha, scale 0 (no effect) to 100 (complete control)
[28] = Preemergence, 8 g ai/ha, scale 0 to 100
[29] = Preemergence, 125 g ai/ha, 0 to 100 scale where 0 is no effect and 100 is complete control
[30] = Preemergence, 31 g ai/ha, scale 0 to 100 (0 no effect, 100 complete control)

O=C1NCC(c2cccc(C(F)(F)F)c2)C1C(=O)Nc1ccccc1Cl (racemic) [Compound 189]
40: Plant response rating, Corn [1, 13]
60: Corn plant response rating (0 to 100 scale, 0 is no effect, 100 is complete control) ([10]; Postemergence, 500 g ai/ha)
55: Plant response rating, Blackgrass [7, 13]
50: Plant response rating, Blackgrass [7, 18]
5: Plant response rating, Lambsquarters [4, 13] | Soybean plant response rating [6, 11]
20: Plant response rating, Oilseed Rape [2, 13]
10: Soybean plant response rating [6, 12] | Blackgrass plant response rating [7, 11]
80: Plant response rating, Barnyardgrass [3, 15]
0: Corn plant response rating [1, 11] | Corn plant response rating [1, 12] | Plant response rating, Corn [1, 14] | Oilseed Rape plant response rating [2, 11] | Oilseed Rape plant response rating [2, 12] | Plant response rating, Oilseed Rape [2, 14] | Lambsquarters plant response rating [4, 11] | Lambsquarters plant response rating [4, 12] | Plant response rating, Lambsquarters [4, 14] | Plant response rating, Pigweed [5, 15] | Plant response rating, Pigweed [5, 16] | Pigweed plant response rating (0 to 100 scale, 0 is no effect, 100 is complete control) ([5]; Postemergence, 500 g ai/ha) | Plant response rating, Pigweed [5, 17] | Plant response rating, Soybean [6, 13] | Plant response rating, Soybean [6, 14] | Plant response rating, Blackgrass [7, 14] | Morningglory plant response rating [8, 11] | Morningglory plant response rating [8, 12] | Plant response rating, Morningglory [8, 13] | Plant response rating, Morningglory [8, 14] | Nutsedge, Yellow plant response rating [9, 11] | Nutsedge, Yellow plant response rating [9, 12] | Plant response rating, Nutsedge, Yellow [9, 13] | Plant response rating, Nutsedge, Yellow [9, 14] | Plant response rating, Corn [10, 15] | Plant response rating, Corn [10, 16] | Plant response rating, Corn [10, 17]
90: Plant response rating, Barnyardgrass [3, 16] | Barnyardgrass plant response rating (0 to 100 scale, 0 is no effect, 100 is complete control) ([3]; Postemergence, 500 g ai/ha) | Plant response rating, Barnyardgrass [3, 17]

O=C1NCC(c2ccc(F)c(F)c2)C1C(=O)Nc1cccc(F)c1 (racemic) [Compound 12]
60: Plant response rating, Barnyardgrass [3, 19] | Barnyardgrass plant response rating ([3]; Preemergence, 125 g ai/ha)
0: Plant response rating, Pigweed [5, 19] | Plant response rating, Pigweed [5, 20] | Pigweed plant response rating [5, 22] | Plant response rating, Pigweed [5, 23] | Plant response rating, Corn [10, 19] | Plant response rating, Corn [10, 20] | Corn plant response rating ([10]; 125 g ai/ha) | Plant response rating, Corn [10, 23]
90: Plant response rating, Barnyardgrass [3, 20] | Plant response rating, Barnyardgrass [3, 21]

CN1CC(c2ccc(F)cc2)C(C(=O)Nc2cccc(F)c2F)C1=O (stereo not drawn) [Compound 271]
20: Plant response rating, Oilseed Rape [2, 27] | Oilseed Rape plant response rating [2, 12] | Lambsquarters plant response rating [4, 12] | Plant response rating, Pigweed [5, 20] | Plant response rating, Corn [10, 16]
45: Plant response rating, Lambsquarters [4, 25] | Plant response rating, Soybean [6, 25] | Plant response rating, Morningglory [8, 27]
55: Plant response rating, Lambsquarters [4, 27]
90: Plant response rating, Barnyardgrass [3, 16] | Plant response rating, Barnyardgrass [3, 20] | Plant response rating, Barnyardgrass [3, 29] | Plant response rating, Barnyardgrass [3, 17]
60: Plant response rating, Soybean [6, 27] | Plant response rating, Corn [10, 20]
40: Plant response rating, Pigweed [5, 29]
50: Plant response rating, Lambsquarters [4, 26] | Blackgrass plant response rating [7, 12]
15: Plant response rating, Soybean [6, 26]
0: Plant response rating, Corn [1, 24] | Plant response rating, Corn [1, 25] | Plant response rating, Corn [1, 26] | Plant response rating, Corn [1, 27] | Corn plant response rating [1, 11] | Corn plant response rating [1, 12] | Plant response rating, Corn [1, 28] | Plant response rating, Corn [1, 14] | Plant response rating, Oilseed Rape [2, 24] | Plant response rating, Oilseed Rape [2, 25] | Plant response rating, Oilseed Rape [2, 26] | Oilseed Rape plant response rating [2, 11] | Plant response rating, Oilseed Rape [2, 28] | Plant response rating, Oilseed Rape [2, 14] | Lambsquarters plant response rating [4, 11] | Plant response rating, Lambsquarters [4, 28] | Plant response rating, Lambsquarters [4, 14] | Plant response rating, Pigweed ([5]; Postemergence, 125 g ai/ha, visual rating on 0 to 100 scale (0 no effect, 100 complete control), approx. 10 days) | Soybean plant response rating [6, 11] | Soybean plant response rating [6, 12] | Plant response rating, Soybean [6, 28] | Plant response rating, Soybean [6, 14] | Plant response rating, Blackgrass [7, 24] | Plant response rating, Blackgrass [7, 25] | Plant response rating, Blackgrass [7, 26] | Plant response rating, Blackgrass [7, 27] | Blackgrass plant response rating [7, 11] | Plant response rating, Blackgrass [7, 28] | Plant response rating, Morningglory [8, 24] | Plant response rating, Morningglory [8, 25] | Morningglory plant response rating [8, 11] | Plant response rating, Morningglory [8, 28] | Plant response rating, Morningglory [8, 14] | Plant response rating, Nutsedge, Yellow [9, 24] | Plant response rating, Nutsedge, Yellow [9, 25] | Plant response rating, Nutsedge, Yellow [9, 26] | Plant response rating, Nutsedge, Yellow [9, 27] | Nutsedge, Yellow plant response rating [9, 11] | Nutsedge, Yellow plant response rating [9, 12] | Plant response rating, Nutsedge, Yellow [9, 28] | Plant response rating, Nutsedge, Yellow [9, 14]
5: Plant response rating, Soybean [6, 24]
80: Plant response rating, Pigweed [5, 17]
10: Plant response rating, Lambsquarters [4, 24] | Plant response rating, Morningglory [8, 26] | Morningglory plant response rating [8, 12]

O=C1NCC(c2ccc(F)cc2)C1C(=O)Nc1ccccc1F (racemic) [Compound 16]
90: Plant response rating, Barnyardgrass [3, 20] | Plant response rating, Barnyardgrass [3, 21]
80: Barnyardgrass plant response rating ([3]; Preemergence, 125 g ai/ha)
0: Corn plant response rating [1, 30] | Plant response rating, Corn [1, 18] | Plant response rating, Pigweed [5, 19] | Plant response rating, Pigweed [5, 20] | Pigweed plant response rating [5, 22] | Plant response rating, Pigweed [5, 23] | Plant response rating, Soybean [6, 18] | Plant response rating, Soybean [6, 13] | Blackgrass plant response rating [7, 30] | Plant response rating, Morningglory [8, 18] | Plant response rating, Morningglory [8, 13] | Plant response rating, Nutsedge, Yellow [9, 18] | Plant response rating, Nutsedge, Yellow [9, 13] | Plant response rating, Corn [10, 19] | Corn plant response rating ([10]; 125 g ai/ha)
70: Plant response rating, Barnyardgrass [3, 19]
30: Plant response rating, Corn [10, 20] | Plant response rating, Corn [10, 23]
5: Plant response rating, Corn [1, 13] | Plant response rating, Blackgrass [7, 18]
10: Plant response rating, Corn ([1]; Preemergence, 250 g ai/ha, scale 0 to 100 (0 no effect, 100 complete control)) | Plant response rating, Blackgrass [7, 13]

O=C1NCC(c2cccc(C(F)(F)F)c2)C1C(=O)Nc1ccccc1F (racemic) [Compound 3]
60: Barnyardgrass plant response rating ([3]; Preemergence, 125 g ai/ha) | Plant response rating, Corn [10, 20]
0: Pigweed plant response rating [5, 22] | Plant response rating, Pigweed [5, 23] | Plant response rating, Corn [10, 19] | Corn plant response rating ([10]; 125 g ai/ha)
70: Plant response rating, Barnyardgrass [3, 19]
50: Plant response rating, Pigweed [5, 20] | Plant response rating, Corn [10, 23]
80: Plant response rating, Barnyardgrass [3, 20] | Plant response rating, Barnyardgrass [3, 21]
